“And” between values parts separate entries of the source, which are not always exact repeats. Equal entries are not always repeated. Values belong to the compound of their own block, whether it stands above or below them.
Tests used:
[1] = Loading of molecules into commercial contact lenses (Comfilcon A); type: physicochemical
Experimental: (§1) Briefly, commercial lenses are individually immersed in wells of a 24 well plate, each containing 1 mL PBS solution of FITC-F ([…]), FITC ([…]), Cip (100 mM) or F-Cip (100 mM), and incubated for 18 h. Then the lenses are washed with PBS three times for 5 min each. All incubation and wash solutions are collected and the amount of each compound is quantified by spectrophotometry. Standard curves are generated with seven standard samples with known concentrations for each individual compound of interest. Specifically, fluorescent compounds FITC and FITC-F are quantified by fluorescence emission at 520 nm (lex. 485 nm), and Cip and F-Cip are quantified by absorbance at 275 nm. The amount of each compound in the above collected solutions is then measured with the standard curve. The amount of the compound incorporated into lenses was determined by subtracting the amount in solution from the total amount added initially.
(§2) Commercial lenses of the above 4 types were removed from blister packs, and blotted gently to remove excess solution. Contact lenses were placed individually into glass vials and immersed in 1 mL of FITC-C8F15 or FITC solution (15.6 μM in phosphate buffered saline) for 24 hours at room temperature. At the end of incubation, lenses were washed three times using phosphate buffered saline. […]

[2] = Loading of molecules into commercial contact lenses (Lotrafilcon B); type: physicochemical; conditions: 24 hours at room temperature, listed as FITC-C8F15
Experimental: as §1, §2

[3] = Time course release of individual compounds from contact lenses; type: physicochemical; conditions: Comfilcon A
Experimental: The modified Comfilcon A lenses are placed into individual wells of a 24 well plate with 1 mL PBS in each well at room temperature. The PBS solution is replaced with fresh PBS every hour for up to 8 h or 15 h, or every 10 min for 2 h or 6 h. The amount of fluorescent compound released into the collected PBS aliquots is quantified spectrophotometrically based on the above standard curve. The amount of F-Cip released into the collected PBS aliquots is quantified using LC-MS (LCQ Deca XP plus with Surveyor LC, Thermo Fisher, Waltham, MA) with electrospray ionization in positive ion mode. Samples ([…] each) are loaded onto the analytical column at […] (Kinetex XB-C18, 2.×50 mm, […], Phenomenex) with the following gradient: 0-3 min, 10-75% (B); 3-7.5 min, 75-91% (B). The mobile phase consists of (A) water containing 0.1% formic acid and (B) acetonitrile containing 0.1% formic acid. Mass spectrometric parameters are as follows: 250° C. capillary temperature, 45 units sheath gas, 10 units aux gas and 4.5 kV spray voltage. […]

[4] = Lens transparency after modification (light transmission); conditions: Comfilcon A lenses embedded with the compound
P. aeruginosa 19660 [5] = assay: In vitro antimicrobial activity of F-Cip-loaded Comfilcon A contact lenses; type: cell-based, Pseudomonas aeruginosa; conditions: Comfilcon A lenses loaded with the compound
P. aeruginosa 19660 [6] = assay: Ex vivo porcine eye infection model, antimicrobial activity of loaded contact lenses; design: species or system Pseudomonas aeruginosa (porcine eyes); conditions: Comfilcon A lenses modified with the compound, on infected scratched porcine eyes, 12 h
Experimental: Upon arrival, eyelids and connective tissues are removed and the porcine eyes are sanitized using 5% penicillin/streptomycin (Sigma-Aldrich, St. Louis, MO) for 1 h followed by washing thrice with PBS. Six scratch wounds with a 3×3 crosshatch pattern of length about 1 cm are created on each cornea using a 27G needle. The eyes are placed into holders and 100 ml of bacterial solution containing 10^6 CFU (see “Antibacterial activity of F-Cip” section discussed above) applied to each cornea. The eyes are left at room temperature in a biosafety cabinet for 5 h. After rinsing with 10 mL of PBS, control and modified Comfilcon A contact lenses are placed individually onto the eyes. […] One eye without scratches but incubated with bacteria served as an additional control. A custom-made apparatus is used to flow culture medium over the surface of the porcine eyes. […] Then 100 ml of the bacterial suspension from each sample was taken out and added into a 96-well plate in triplicate, and absorbance at 620 nm was measured and plotted as percentage of bacterial growth inhibition compared to the corneas infected with bacteria but without any treatments. […]

[7] = system: Pseudomonas aeruginosa (PA) ATCC 19660; assay: Antibacterial activity of F-Cip (growth inhibition, absorbance at 620 nm); type: cell-based; conditions: ATCC19660, P. aeruginosa ATCC 19660, 18 h at 37° C., n > 3
Experimental: The strain is inoculated and grown at 37° C. for 18 h. The bacterial suspension ([…]) is added into 100 mL of nutrient broth and incubated for 2 h to reach a log growth phase. The resulting bacterial suspension is adjusted to a concentration of ˜10^7 cfu/mL and […] are placed into each well of a 96 well plate. Fifty microliters of F-Cip solution are added into the 96 well plate and incubated at 37° C. for 18 h. The inhibition of microbial growth is determined by measuring the absorbance at 620 nm.

[8] = system: human telomerase corneal epithelial cells (hTCEpi); type: cell-based
Experimental: Telomerase modified human corneal epithelial cells were seeded into wells of a 96 well plate with […] KGM-2 medium (Lonza Ltd, Switzerland) and incubated at 37° C. until ˜80% confluence. […] Cells treated with 0.05% benzalkonium chloride (BAC) and without any treatment served as controls. The plate was incubated at 37° C. for 18 h, and cell viability was determined using a cell counting kit-8 assay. […] All lenses are taken out, and cell viability was determined using a cell counting kit-8 assay (Dojindo Molecular Technologies, Inc. Japan).

- amount attached relative to the amount of FITC attached ([1]; Comfilcon A, 24 hours at room temperature, listed as FITC-C8F15): 11 times and 9 times
- amount attached relative to the amount of FITC attached [2]: 6.5 times and 5 times
- duration of nearly linear release ([3]; solution exchange rate 1 mL/h): 6 h
- release profile ([3]; solution exchange rate 1 mL/h): sustained profile
- release rate ([3]; solution exchange rate 1 mL/h): 10.5 % per hour
- release reached at 15 h ([3]; solution exchange rate 1 mL/h, 15 h): ~90%
- duration of sustained linear release ([3]; solution exchange rate 6 mL/h): 120 min
- release rate ([3]; solution exchange rate 6 mL/h): 26.5 % per hour
- time to reach release plateau ([3]; solution exchange rate 6 mL/h): 270 min
Compound: O=C(O)c1cc(NC(=S)NCC(F)(F)C(F)(F)C(F)(F)C(F)(F)C(F)(F)C(F)(F)C(F)(F)F)ccc1-c1c2ccc(=O)cc-2oc2cc(O)ccc12 [Compound 6]

- transmission profile compared with fresh unmodified lens ([4]; between 200 nm and 800 nm): significantly overlap
- Transmission of modified lenses ([4]; between 400 nm and 750 nm): about 100%
- amount loaded onto lens ([1]; Comfilcon A lenses, incubated 18 h in PBS solution): 3.56±4.51 nmol/lens
- release at plateau ([3]; solution exchange rate 1 mL/h): ~60%
- release profile ([3]; solution exchange rate 1 mL/h): typical burst release profile
- time to reach release plateau (no more release) ([3]; solution exchange rate 1 mL/h): 3 h
Compound: O=C(O)c1cn(C2CC2)c2cc(N3CCNCC3)c(F)cc2c1=O [Compound 12, Ciprofloxacin]
- growth inhibition (P. aeruginosa 19660 [5]): 35.2%
- bacterial growth inhibition (P. aeruginosa 19660 [6]): 37.5±8.2%
- IC50 [7]: 130 ± 35 nM

Compound: Benzalkonium chloride [Benzalkonium chloride (BAC)]
- cells killed [8]: about 100%

Compound: fluorescein isothiocyanate [Compound 7]
- release at plateau ([3]; solution exchange rate 1 mL/h): ~60%
- release profile ([3]; solution exchange rate 1 mL/h): typical burst release profile
- time to reach release plateau (no more release) ([3]; solution exchange rate 1 mL/h): ≤ 2 h
- time to reach release plateau ([3]; solution exchange rate 6 mL/h): ≤ 50 min

— patent publication US12208159B2, “Compositions, methods and kits for treating a contact lens” (University of Houston System, priority 2016, dated 2025)
